We go through 36 molecules from patent US20250171431A1, “HETEROCYCLIC INHIBITORS OF IGF-1R FOR TREATMENT OF DISEASE” (HORIZON THERAPEUTICS IRELAND DAC, priority 2023, published 2025).

Sequence of IGF-1R (P08069 31-1367): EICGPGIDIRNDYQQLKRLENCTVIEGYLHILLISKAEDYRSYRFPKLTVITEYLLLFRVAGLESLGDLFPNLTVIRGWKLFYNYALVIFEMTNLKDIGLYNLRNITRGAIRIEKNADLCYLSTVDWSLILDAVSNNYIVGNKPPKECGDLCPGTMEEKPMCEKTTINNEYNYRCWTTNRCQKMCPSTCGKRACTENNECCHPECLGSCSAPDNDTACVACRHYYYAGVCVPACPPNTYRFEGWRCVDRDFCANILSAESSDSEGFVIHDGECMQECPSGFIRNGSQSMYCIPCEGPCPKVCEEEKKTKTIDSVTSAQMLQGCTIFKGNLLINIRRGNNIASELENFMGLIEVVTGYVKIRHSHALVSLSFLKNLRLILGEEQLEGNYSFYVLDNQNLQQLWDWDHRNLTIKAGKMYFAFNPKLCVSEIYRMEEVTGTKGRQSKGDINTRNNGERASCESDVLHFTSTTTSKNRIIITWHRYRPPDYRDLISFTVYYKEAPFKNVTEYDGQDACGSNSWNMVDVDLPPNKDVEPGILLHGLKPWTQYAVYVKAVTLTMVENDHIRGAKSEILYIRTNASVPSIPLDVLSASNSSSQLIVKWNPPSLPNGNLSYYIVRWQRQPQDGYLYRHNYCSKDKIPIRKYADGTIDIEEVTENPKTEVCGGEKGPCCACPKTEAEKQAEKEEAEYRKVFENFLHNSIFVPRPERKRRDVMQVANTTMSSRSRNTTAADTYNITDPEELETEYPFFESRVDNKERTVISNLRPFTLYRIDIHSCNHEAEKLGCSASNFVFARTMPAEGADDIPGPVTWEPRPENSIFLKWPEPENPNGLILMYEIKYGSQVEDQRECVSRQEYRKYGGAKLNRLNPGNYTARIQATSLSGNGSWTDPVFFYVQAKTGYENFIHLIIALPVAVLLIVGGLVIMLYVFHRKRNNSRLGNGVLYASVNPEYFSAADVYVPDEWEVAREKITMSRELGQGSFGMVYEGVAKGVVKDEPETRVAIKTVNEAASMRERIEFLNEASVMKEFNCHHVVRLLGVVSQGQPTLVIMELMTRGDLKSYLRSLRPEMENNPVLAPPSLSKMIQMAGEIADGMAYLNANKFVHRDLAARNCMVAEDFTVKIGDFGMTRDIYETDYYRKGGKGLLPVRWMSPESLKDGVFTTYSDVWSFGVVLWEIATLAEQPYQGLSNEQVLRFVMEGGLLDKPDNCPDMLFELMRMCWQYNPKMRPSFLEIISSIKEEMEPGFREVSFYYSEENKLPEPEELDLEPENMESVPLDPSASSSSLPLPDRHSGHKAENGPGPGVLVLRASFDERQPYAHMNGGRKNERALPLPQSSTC

The assay addresses IGF-1R (Homo sapiens (Human), UniProt P08069). Nature of the assay: Example B-1: IGF-1R Assay (PC3 cells, IGF1 stimulation, AlphaLISA). It counts as cell-based. Particulars: 200 ng/mL IGF1 stimulation, read-out: Biological Activity against IGF-1R IC50. Summed up: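 Readout is AlphaLISA signal from lysed PC3 cells, expressed as % inhibition versus vehicle and EC80 controls and banded by IC50. Before lysis, the cells were starved of serum for 2 h, exposed to 3× serially diluted compound for 2 h, and stimulated for 30 min with 200 ng/mL IGF1 (final).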
As to `c1ccc2ncc(Nc3ccnc(Nc4ccc(OCCCN5CCCCC5)c(OCC5CCOCC5)c4)n3)cc2c1` [Compound 418], the IC50 is at most 500 nM. Under `COc1cc(Nc2nccc(Nc3cnc4ccc(C(F)(F)F)cc4c3)n2)ccc1OCCCN1CCOCC1` [Compound 419, 2-[3-methoxy-4-(3-morpholinopropoxy)phenylamino]-4-[6-(trifluoromethyl)-3-quinolylamino]pyrimidine] stands at most 500 nM; under `COc1cc(Nc2nccc(Nc3cnc4ccc(Br)cc4c3)n2)ccc1OCCCN1CCCCC1` [Compound 421, 4-(6-bromo-3-quinolylamino)-2-[3-methoxy-4-(3-piperidinopropoxy)phenylamino]pyrimidine], at most 500 nM. For `COc1cc(Nc2nccc(Nc3cnc4cccc(Cl)c4c3)n2)ccc1OCCCN1CCCCC1` [Compound 422, 4-(5-chloro-3-quinolylamino)-2-[3-methoxy-4-(3-piperidinopropoxy)phenylamino]pyrimidine] the value was at most 500 nM; for `COc1cc(Nc2nccc(Nc3cnc4cccc(F)c4c3)n2)ccc1OCCCN1CCCCC1` [Compound 423, 4-(5-fluoro-3-quinolylamino)-2-[3-methoxy-4-(3-piperidinopropoxy)phenylamino]pyrimidine], at most 500 nM. Under `COc1cc(Nc2nccc(Nc3cc4ccccc4nc3C)n2)ccc1OCCCN1CCCCC1` [Compound 424, 2-[3-methoxy-4-(3-piperidinopropoxy)phenylamino]-4-(2-methyl-3-quinolylamino)pyrimidine] stands 500 to 2000 nM; under `c1ccc2ncc(Nc3ccnc(Nc4ccc(OCCCN5CCCCC5)c(OCC5CC5)c4)n3)cc2c1` [Compound 425, 2-[3-(cyclopropylmethoxy)-4-(3-piperidinopropoxy)phenylamino]-4-(3-quinolylamino)pyrimidine], at most 500 nM. Take `COc1ccc2cc(Nc3ccnc(Nc4ccc(OCCCN5CCCCC5)c(OC)c4)n3)cnc2c1` [Compound 426, 2-[3-methoxy-4-(3-piperidinopropoxy)phenylamino]-4-(7-methoxy-3-quinolylamino)pyrimidine]: the IC50 is at most 500 nM.

Consider `COc1cc(Nc2nccc(Nc3cnc4ccc(F)cc4c3)n2)ccc1OCCCN1CCCCC1` [Compound 427, 4-(6-fluoro-3-quinolylamino)-2-[3-methoxy-4-(3-piperidinopropoxy)phenylamino]pyrimidine], for which the IC50 was at most 500 nM. Under `COc1cc(Nc2nccc(Nc3cnc4ccc(C)cc4c3)n2)ccc1OCCCN1CCCCC1` [Compound 429, 2-[3-methoxy-4-(3-piperidinopropoxy)phenylamino]-4-(6-methyl-3-quinolylamino)pyrimidine] stands at most 500 nM; under `COc1cc(Nc2nccc(Nc3cnc4c(Cl)cccc4c3)n2)ccc1OCCCN1CCCCC1` [Compound 430, 4-(8-chloro-3-quinolylamino)-2-[3-methoxy-4-(3-piperidinopropoxy)phenylamino]pyrimidine], at most 500 nM; under `COc1cc(Nc2ncc(F)c(Nc3cnc4ccccc4c3)n2)ccc1OCCCN1CCCCC1` [Compound 431, 5-fluoro-2-[3-methoxy-4-(3-piperidinopropoxy)phenylamino]-4-(3-quinolylamino)pyrimidine], at most 500 nM. For `Fc1cnc(Nc2ccc(OCCCN3CCCCC3)cc2)nc1Nc1cnc2ccccc2c1` [Compound 432, 5-fluoro-2-[p-(3-piperidinopropoxy)phenylamino]-4-(3-quinolylamino)pyrimidine] the value was at most 500 nM; for `COc1cc(Nc2nccc(Nc3ccc4cccnc4c3)n2)ccc1OCCCN1CCCCC1` [Compound 433, 2-[3-methoxy-4-(3-piperidinopropoxy)phenylamino]-4-(7-quinolylamino) pyrimidine], 500 to 2000 nM; for `COc1cc(Nc2nccc(Nc3ccc4scnc4c3)n2)ccc1OCCCN1CCCCC1` [Compound 443, 4-(1,3-benzothiazol-5-ylamino)-2-[3-methoxy-4-(3-piperidinopropoxy)phenylamino] pyrimidine], at most 500 nM. For `COc1ccc2cc(Nc3ccnc(Nc4ccc(OCCCN5CCCCC5)c(OC)c4)n3)ccc2c1` [Compound 444, 4-(6-methoxy-2-naphthylamino)-2-[3-methoxy-4-(3-piperidinopropoxy)phenylamino] pyrimidine] the value was at most 500 nM; for `COc1cc(Nc2nccc(Nc3cc(F)c4ncccc4c3)n2)ccc1OCCCN1CCCCC1` [Compound 447, 4-(8-fluoro-6-quinolylamino)-2-[3-methoxy-4-(3-piperidinopropoxy)phenylamino] pyrimidine], at most 500 nM; for `COc1cc(Nc2nccc(Nc3ccc4c(c3)CCC(=O)N4)n2)ccc1OCCCN1CCCCC1` [Compound 448, 6-{2-[3-methoxy-4-(3-piperidinopropoxy)phenylamino]-4-pyrimidinylamino}-3,4-dihydro-2(1H)-quinolinone], at most 500 nM.

Regarding `COc1cc(Nc2nccc(Nc3ccc4c(c3)CCCC4=O)n2)ccc1OCCCN1CCCCC1` [Compound 449, 6-{2-[3-methoxy-4-(3-piperidinopropoxy)phenylamino]-4-pyrimidinylamino}-3,4-dihydro-1(2H)-naphthalenone], the IC50 was at most 500 nM. For the molecule `COc1cc(Nc2nccc(Nc3ccc4c(c3)CCN(C)C4)n2)ccc1OCCCN1CCCCC1` [Compound 450, 2-[3-methoxy-4-(3-piperidinopropoxy)phenylamino]-4-(2-methyl-1,2,3,4-tetrahydro-6-isoquinolylamino) pyrimidine], the 50% inhibitory concentration (IC50) lay within 500 to 2000 nM.

As to `COc1cc(Nc2nccc(Nc3ccc4c(c3)CCCN4C)n2)ccc1OCCCN1CCCCC1` [Compound 451, 2-[3-methoxy-4-(3-piperidinopropoxy)phenylamino]-4-(1-methyl-1,2,3,4-tetrahydro-6-quinolylamino) pyrimidine], the IC50 was at most 500 nM.

In the case of `COc1ccc2ccc(Nc3ccnc(Nc4ccc(OCCCN5CCCCC5)c(OC)c4)n3)cc2c1` [Compound 452, 4-(7-methoxy-2-naphthylamino)-2-[3-methoxy-4-(3-piperidinopropoxy)phenylamino] pyrimidine], the IC50 is at most 500 nM. As for `COc1cc(Nc2nccc(Nc3ccc4c(OC)cccc4c3)n2)ccc1OCCCN1CCCCC1` [Compound 453, 4-(5-methoxy-2-naphthylamino)-2-[3-methoxy-4-(3-piperidinopropoxy)phenylamino] pyrimidine], the IC50 was at most 500 nM. With `COc1cc(Nc2nccc(Nc3cc(C)c4ccccc4c3)n2)ccc1OCCCN1CCCCC1` [Compound 454, 2-[3-methoxy-4-(3-piperidinopropoxy)phenylamino]-4-(4-methyl-2-naphthylamino) pyrimidine], the IC50 is at most 500 nM.

As to `COc1cc(Nc2nccc(Nc3ccc4nc(C)ccc4c3)n2)ccc1OCCCN1CCCCC1` [Compound 456, 2-[3-methoxy-4-(3-piperidinopropoxy)phenylamino]-4-(2-methyl-6-quinolylamino) pyrimidine], the IC50 is at most 500 nM.

In the case of `COc1cc(Nc2nccc(Nc3cc(Cl)c4ncccc4c3)n2)ccc1OCCCN1CCCCC1` [Compound 457, 4-(8-chloro-6-quinolylamino)-2-[3-methoxy-4-(3-piperidinopropoxy)phenylamino] pyrimidine], the IC50 was at most 500 nM. As to `Clc1cc(Nc2nccc(Nc3cnc4ccccc4c3)n2)ccc1N1CCOCC1` [Compound 459, 2-(3-chloro-4-morpholinophenylamino)-4-(3-quinolylamino)pyrimidine], the IC50 was at most 500 nM. With `COc1cc(Nc2nccc(Nc3cnc4c(Cl)cccc4c3)n2)ccc1N1CCOCC1` [Compound 461, 4-(8-chloro-3-quinolylamino)-2-(3-methoxy-4-morpholinophenylamino) pyrimidine], the IC50 is at most 500 nM. Under `COc1cc(Nc2nccc(Nc3cnc4ccc(Cl)cc4c3)n2)ccc1N1CCOCC1` [Compound 462, 4-(6-chloro-3-quinolylamino)-2-(3-methoxy-4-morpholinophenylamino) pyrimidine] stands at most 500 nM; under `COc1ccc2cc(Nc3ccnc(Nc4ccc(N5CCN(C)CC5)cc4OC)n3)cnc2c1` [Compound 463, 2-[2-methoxy-4-(4-methyl-1-piperazinyl)phenylamino]-4-(7-methoxy-3-quinolylamino)pyrimidine], at most 500 nM. Under `COc1cc(N2CCN(C)CC2)ccc1Nc1nccc(Nc2cnc3cc(Cl)ccc3c2)n1` [Compound 464, 4-(7-chloro-3-quinolylamino)-2-[2-methoxy-4-(4-methyl-1-piperazinyl)phenylamino] pyrimidine] stands at most 500 nM. For `CC(O)C(=O)N1CCN(c2ccc(Nc3nccc(Nc4cnc5ccccc5c4)n3)cc2)CC1` (stereo not drawn) [Compound 465, 2-hydroxy-1-(4-{p-[4-(3-quinolylamino)-2-pyrimidinylamino]phenyl}-1-piperazinyl)-1-propanone], the half-inhibitory concentration (IC50) is at most 500 nM. For `COc1cc(N2CCN(C)CC2)ccc1Nc1nccc(Nc2cnc3c(Cl)cccc3c2)n1` [Compound 467, 4-(8-chloro-3-quinolylamino)-2-[2-methoxy-4-(4-methyl-1-piperazinyl)phenylamino] pyrimidine] the value was at most 500 nM. For `COc1cc(Nc2nccc(Nc3cnc4cc(F)c(F)cc4c3)n2)cnc1N1CCN(C)CC1` [Compound 468, 4-(6,7-difluoro-3-quinolylamino)-2-[5-methoxy-6-(4-methyl-1-piperazinyl)-3-pyridylamino]pyrimidine] the value was at most 500 nM. For `COc1cc(Nc2nccc(Nc3cnc4cc(F)c(F)cc4c3)n2)cnc1N1CCOCC1` [Compound 469, 4-(6,7-difluoro-3-quinolylamino)-2-(5-methoxy-6-morpholino-3-pyridylamino)pyrimidine] the value was at most 500 nM; for `COc1cc(Nc2nccc(Nc3cnc4cc(F)c(F)cc4c3)n2)cnc1N1CCNC(=O)C1` [Compound 471, 4-{5-[4-(6,7-difluoro-3-quinolylamino)-2-pyrimidinylamino]-3-methoxy-2-pyridyl}-2-piperazinone], above 10000 nM.
